Laboratory results reported in patent US4207316A, “Novel 17-substituted 11 β-hydroxy steroids of the pregnane series, their manufacture, preparation and use” (Schering Aktiengesellschaft, priority 1978, dated 1980).
Like-named read-outs stand apart in the source and are kept apart here.

Experiments:
[1] = test system: paw edema (Mycobacterium butyricum suspension); assay: adjuvant edema test (systemic effectiveness); assay type: in vivo, SPF rats; settings: for ED50: Mycobacterium
Protocol: The systemic effectiveness of the compounds can be determined with the aid of the adjuvant edema test as follows:
SPF rats weighing 130-150 g. are injected in the right hind paw, for producing a center of inflammation, with 0.1 ml. of a 0.5% Mycobacterium butyricum suspension (obtainable from the U.S. company Difco). Prior to injection, the paw volume of the rats is measured. Twenty-four hours after injection, the paw volume is measured once again to determine the extent of the edema. Thereafter, varying amounts of the test compound--dissolved in a mixture of 29% benzyl benzoate and 71% castor oil--are administered orally or subcutaneously to the rats. After another 24 hours, the paw volume is again determined.
The control animals are treated in the same way, except that they are injected with a benzyl benzoate-castor oil mixture free of test compound.
From the paw volumes determined, the amount of test compound required for attaining a 50% reduction in volume of the experimentally produced paw edema is calculated in the usual way.
The following tables indicate the thus-obtained test results, wherein in each case the compounds of this invention are compared with the conventional corticoids contained in commercially available preparations which are most analogous in structure.

[2] = test system: erythema of stripped skin (vasoconstriction); assay: vasoconstriction test (topical efficacy), difference in degree of efficacy vs diflucortolone 21-valerate (DFV); assay type: in vivo, healthy test persons (human); settings: 0.1 p.p.m. active agent, positive = more favorable than DFV
Protocol: The topical efficacy can be determined as follows using the vasoconstriction test.
The test was conducted on respectively eight healthy test persons of both sexes, who had not received any local corti costeroid treatment within the preceding two weeks. After the stratum corneum on the test persons' backs was removed down to the stratum lucidum (20-40 times application and tearing off of an adhesive film), respectively 0.1 g. of the preparations was applied to areas of a size of 4 cm^2 without protective dressing. To avoid the application of the identical preparation to identical skin areas, the application is done in a rotating fashion. The vasoconstriction is evaluated visually after 4 and 8 hours by the investigator in accordance with the following grades of effectiveness: 1=absolute fading; 2=minor residual erythema; 3=medium-grade erythema, reddening intensity in the central zone of stripped, untreated and undamaged skin; 4=erythema with minor fading; 5=no fading, or intensification of erythema.
The individual evaluations were averaged.
In each test series, diflucortolone 21-valerate (=6α,9α-difluoro-11β-hydroxy-16α-methyl-21-valeryloxy-1,4-pregnadiene-3,20-dione=DFV) is utilized as the reference compound.
The difference Δ of the average degrees of efficacy of DFV and of the test compound determined in the individual series of investigations is calculated in each case. Positive deviations Δ show a more favorable evaluation: negative deviations show a more unfavorable evaluation of the test compound as compared to DFV.
The tables set forth below list the observed test results obtained when treating the test persons with a preparation containing 0.1 p.p.m. of active agent.

[3] = sc, rats, subcutaneous, 24 h after administration, read-out: Adjuvant Edema Test ED50 s.c. (50% reduction in volume of paw edema)
[4] = rats, subcutaneous, 24 h after administration
[5] = rats, oral, 24 h after administration, read-out: Adjuvant Edema Test ED50 p.o. (50% reduction in volume of paw edema)
[6] = rats, oral, 24 h after administration

| Molecule | ED50 [1, 3] [mg/kg] | Adjuvant Edema Test ED50 s.c. (50% reduction in volume of paw edema) [1, 4] | Vasoconstriction Test Δ After 8 h. (difference of average degrees of efficacy of DFV and test compound) [2] | further results |
| --- | --- | --- | --- | --- |
| CCCOCO[C@]1(C(=O)CO)CC[C@H]2[C@@H]3CCC4=CC(=O)CC[C@]4(C)[C@H]3[C@@H](O)C[C@@]21C [compound 4] | ~10 |  |  |  |
| 21-butyryloxy-11β-hydroxy-17α-methoxymethoxy-4-pregnene-3,20-dione [Example 20] |  | 2.0 mg./kg. Animal |  |  |
| 21-acetoxy-17α-methoxymethoxy-4-pregnene-3,11,20-trione [Example 24] |  |  |  | Adjuvant Edema Test ED50 s.c. (50% reduction in volume of paw edema) ([1]; rats, subcutaneous, 24 h after administration, 1440 min): 3.5 mg./kg. Animal; Adjuvant Edema Test ED50 s.c. (50% reduction in volume of paw edema) ([1]; rats, subcutaneous, 24 h after administration, listed as 25, 1440 min): 4.0 mg./kg. Animal |
| 21-Acetoxy-11β-hydroxy-17α-methoxymethoxy-1,4-pregnadiene-3,20-dione [No. 10] |  | 3.0 mg./kg. Animal | +1.0 | Vasoconstriction Test Δ After 4 h. (difference of average degrees of efficacy of DFV and test compound) [2]: +0.5 |
| 17α-Butoxymethoxy-11β,21-dihydroxy-4-pregnene-3,20-dione [No. 6] |  | about 1 mg./kg. Animal | +1.0 | Vasoconstriction Test Δ After 4 h. (difference of average degrees of efficacy of DFV and test compound) [2]: +0.9 |
| 11β,21-dihydroxy-17α-(1'-methoxyethoxy)-6α-methyl-1,4-pregnadiene-3,20-dione [Example 12] |  | about 3 mg./kg. Animal |  |  |
| COCO[C@]1(C(=O)CO)CC[C@H]2[C@@H]3CCC4=CC(=O)C=C[C@]4(C)[C@H]3[C@@H](O)C[C@@]21C [compound 9] |  |  |  | ED50 [1, 5]: 9.8 mg/kg |
| 21-Butyryloxy-11β-hydroxy-17α-methoxymethoxy-1,4-pregnadiene-3,20-dione [No. 12] |  | about 1 mg./kg. Animal | +0.2 | Vasoconstriction Test Δ After 4 h. (difference of average degrees of efficacy of DFV and test compound) [2]: +0.5 |
| 21-Acetoxy-9α-chloro-11β-hydroxy-17α-methoxymethoxy-4-pregnene-3,20-dione [No. 14] |  |  |  | Vasoconstriction Test Δ After 4 h. (difference of average degrees of efficacy of DFV and test compound) ([2]; listed as 26): -0.8; Vasoconstriction Test Δ After 4 h. (difference of average degrees of efficacy of DFV and test compound) ([2]; listed as 27): +0.6; Vasoconstriction Test Δ After 8 h. (difference of average degrees of efficacy of DFV and test compound) ([2]; listed as 26): -0.9; Vasoconstriction Test Δ After 8 h. (difference of average degrees of efficacy of DFV and test compound) ([2]; listed as 27): +0.6; Adjuvant Edema Test ED50 p.o. (50% reduction in volume of paw edema) [1, 6]: 22 mg./kg. Animal |
| CCOCO[C@]1(C(=O)CO)CC[C@H]2[C@@H]3CCC4=CC(=O)CC[C@]4(C)[C@H]3[C@@H](O)C[C@@]21C [compound 3] | 14.5 |  |  |  |
| CCCCOCO[C@]1(C(=O)CO)CC[C@H]2[C@@H]3CCC4=CC(=O)CC[C@]4(C)[C@H]3[C@@H](O)C[C@@]21C [compound 6] | 20 |  |  |  |
| CC(C)OCO[C@]1(C(=O)CO)CC[C@H]2[C@@H]3CCC4=CC(=O)CC[C@]4(C)[C@H]3[C@@H](O)C[C@@]21C [compound 5] | > 30 |  |  | Adjuvant Edema Test, percentage in parentheses beside ED50 s.c. bound ([1]; rats, subcutaneous, at 30 mg./kg.): 42% |
| 11β-hydroxy-17α-methoxymethoxy-21-trimethylacetoxy-4-pregnene-3,20-dione [Example 21] |  | 3.0 mg./kg. Animal |  |  |
| 6α-Fluoro-11β,21-dihydroxy-17α-methoxymethoxy-4-pregnene-3,20-dione [No. 25] |  |  | +1.3 | Vasoconstriction Test Δ After 4 h. (difference of average degrees of efficacy of DFV and test compound) [2]: +1.0; Adjuvant Edema Test ED50 p.o. (50% reduction in volume of paw edema) [1, 6]: about 8 mg./kg. Animal |
| 11β,21-Dihydroxy-17α-methoxymethoxy-1,4-pregnadiene-3,20-dione [No. 9] |  | about 3 mg./kg. Animal | +0.4 |  |
| CCCC(=O)O[C@]1(C(=O)CO)CC[C@H]2[C@@H]3CCC4=CC(=O)CC[C@]4(C)[C@H]3[C@@H](O)C[C@@]21C [compound 1] | 13 |  |  | ED50 [1, 5]: 54 mg/kg |
| C[C@]12CCC(=O)C=C1CC[C@@H]1[C@@H]2[C@@H](O)C[C@@]2(C)[C@H]1CC[C@]2(OC1CCCCO1)C(=O)CO (stereo partly drawn) [compound 7] | 12 |  |  |  |
| 21-acetoxy-11β-hydroxy-17α-methoxymethoxy-4-pregnene-3,20-dione [Example 18] |  | 0.13 mg./kg. Animal |  |  |
| 11β,21-dihydroxy-17α-methoxymethoxy-16β-methyl-4-pregnene- 3,20-dione [Example 17] |  | 2.1 mg./kg. Animal |  |  |
| COCO[C@]1(C(=O)CO)CC[C@H]2[C@@H]3CCC4=CC(=O)CC[C@]4(C)[C@H]3[C@@H](O)C[C@@]21C [compound 2] | 13 |  |  | ED50 [1, 5]: 67 mg/kg |
| 11β,21-Dihydroxy-17α-propoxymethoxy-4-pregnene-3,20-dione [No. 4] |  | 3.2 mg./kg. Animal | +0.7 | Vasoconstriction Test Δ After 4 h. (difference of average degrees of efficacy of DFV and test compound) [2]: +0.4 |
| COCO[C@]1(C(=O)COC(C)=O)CC[C@H]2[C@@H]3CCC4=CC(=O)C=C[C@]4(C)[C@H]3[C@@H](O)C[C@@]21C [compound 10] | > 3 |  |  | Adjuvant Edema Test, percentage in parentheses beside ED50 s.c. bound ([1]; rats, subcutaneous, at 3 mg./kg.): 25% |
| 17α-Ethoxymethoxy-11β,21-dihydroxy-4-pregnene-3,20-dione [No. 3] |  | 3.0 mg./kg. Animal | 0.0 | Vasoconstriction Test Δ After 4 h. (difference of average degrees of efficacy of DFV and test compound) [2]: -0.3; Adjuvant Edema Test ED50 p.o. (50% reduction in volume of paw edema) [1, 6]: 22 mg./kg. Animal |
| C[C@]12C=CC(=O)C=C1CC[C@@H]1[C@@H]2[C@@H](O)C[C@@]2(C)[C@H]1CC[C@]2(O)C(=O)CO [compound 8] |  |  |  | ED50 ([1]; in Rattus norvegicus, po, 24 h, read-out: Adjuvant Edema Test ED50 p.o. (50% reduction in volume of paw edema)): 8.6 mg/kg; ED50 ([1]; in Rattus norvegicus, sc, 24 h, read-out: Adjuvant Edema Test ED50 s.c. (50% reduction in volume of paw edema)): 2.6 mg/kg |
| 11β-hydroxy-17α-methoxymethoxy-21-propionyloxy-4-pregnene-3,20- dione [Example 19] |  | 1.9 mg./kg. Animal | +0.5 | Vasoconstriction Test Δ After 4 h. (difference of average degrees of efficacy of DFV and test compound) [2]: +0.5 |
